The values that follow come from ChEMBL document CHEMBL1201861, “Genomics of Drug Sensitity in Cancer screening data, Wellcome Trust Sanger Institute”.

pIC50: −log10 of the molar value.

Format in all cases: functional, cell-based
One assay deals with RT-4. Nature of the assay: SANGER: Inhibition of human RT4 cell growth in a cell viability assay.
The test system of another assay is DMS-53. Nature of the assay: cells. The conditions noted are these: Homo sapiens.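 Note: cell viability assay measuring growth inhibition of human DMS-53 cells.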
Another assay concerns Caov-3 cell line. The assay can be described thus: cells. The conditions noted are these: Homo sapiens.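 Note: cell growth inhibition read out by a viability assay.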
Another assay relates to EW-7. Nature of the assay: SANGER: Inhibition of human EW-7 cell growth in a cell viability assay.
In the next assay the test system is TT. Nature of the assay: cells. The conditions noted are these: Homo sapiens.
The test system of a further assay is CCF-STTG1. The assay can be described thus: cells. As to conditions: Homo sapiens.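 Note: growth inhibition of human CCF-STTG1 cells, determined with a cell viability read-out.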
A further assay concerns HCC1143. The assay can be described thus: cells. As to conditions: Homo sapiens.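 Note: growth inhibition of human HCC1143 cells, read out with a cell viability assay.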
A further assay deals with MES-SA. Nature of the assay: cells. As to conditions: Homo sapiens.
Another assay deals with SK-CO-1. The assay can be described thus: cells. As to conditions: Homo sapiens.
The next assay has as its system DV-90. The assay can be described thus: cells. As to conditions: Homo sapiens.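 Note: Read-out is a viability assay, with IC50 reflecting the drop in DV-90 cell growth.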
The subject of the next assay is EFE-184. Nature of the assay: cells. The conditions noted are these: Homo sapiens.
For another assay, the system named is NCI-H2227. Nature of the assay: cells. The conditions noted are these: Homo sapiens.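 Note: growth inhibition of the human cell line, read out with a cell viability assay.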
The test system of another assay is Calu-1. The assay can be described thus: SANGER: Inhibition of human Calu-1 cell growth in a cell viability assay.
Another assay relates to PLC-PRF-5. Nature of the assay: cells. As to conditions: Homo sapiens.
Another assay has as its system SNG-M. Nature of the assay: cells. As to conditions: Homo sapiens.
The subject of the next assay is COLO 205. The assay can be described thus: cells. As to conditions: Homo sapiens.
For another assay, the system named is MFE-296. The assay can be described thus: SANGER: Inhibition of human MFE-296 cell growth in a cell viability assay.
Another assay deals with C-4-II. The assay can be described thus: SANGER: Inhibition of human C-4-II cell growth in a cell viability assay.
The next assay concerns IPC-298. The assay can be described thus: SANGER: Inhibition of human IPC-298 cell growth in a cell viability assay.
In the next assay the test system is SNU-475. The assay can be described thus: cells. As to conditions: Homo sapiens.
Another assay has as its system NCI-H838. Nature of the assay: cells. The conditions noted are these: Homo sapiens.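 Note: growth inhibition of human NCI-H838 cells, read out by a cell viability assay.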
The subject of a further assay is NCI-H2029. Nature of the assay: cells. As to conditions: Homo sapiens.
For a further assay, the system named is TGBC11TKB. The assay can be described thus: cells. As to conditions: Homo sapiens.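 Note: growth inhibition of human TGBC11TKB cells, measured by a cell viability assay.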
The next assay relates to SW900. The assay can be described thus: cells. The conditions noted are these: Homo sapiens.
In the next assay the test system is YH-13. Nature of the assay: cells. The conditions noted are these: Homo sapiens.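 Note: cell viability readout of growth suppression in the human YH-13 cell line.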
For another assay, the system named is KNS-62. Nature of the assay: cells. As to conditions: Homo sapiens.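 Note: inhibition of cell growth, read out with a cell viability assay.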
A further assay concerns NCI-H1666. The assay can be described thus: cells. The conditions noted are these: Homo sapiens.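 Note: growth inhibition of the cell line, read out with a cell viability assay.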
The next assay concerns H9. The assay can be described thus: cells. The conditions noted are these: Homo sapiens.
The test system of another assay is D-423MG. Nature of the assay: cells. The conditions noted are these: Homo sapiens.
For a further assay, the system named is TI-73. The assay can be described thus: cells. The conditions noted are these: Homo sapiens.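 Note: cell viability assay measuring how much compounds suppress growth of the cultured cell line.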
For a further assay, the system named is ECC10. Nature of the assay: cells. As to conditions: Homo sapiens.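 Note: growth inhibition of ECC10 cells, read out by a cell viability assay.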
For the next assay, the system named is RH-18. The assay can be described thus: cells. As to conditions: Homo sapiens, Rh18.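 Note: growth inhibition of human RH-18 cells, read out with a cell viability assay.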
A further assay relates to D-566MG. Nature of the assay: cells. The conditions noted are these: Homo sapiens.
The next assay relates to ZR-75-30. Nature of the assay: cells. The conditions noted are these: Homo sapiens.
Another assay concerns CFPAC-1. The assay can be described thus: cells. The conditions noted are these: Homo sapiens.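 Note: cell viability readout used to gauge suppression of CFPAC-1 cell proliferation.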
Another assay relates to OC-314. Nature of the assay: cells. The conditions noted are these: Homo sapiens.
The next assay relates to NBsusSR. Nature of the assay: cells. As to conditions: Homo sapiens.
The subject of another assay is A549. Nature of the assay: cells. The conditions noted are these: Homo sapiens.
A further assay has as its system SW 1116. The assay can be described thus: cells. The conditions noted are these: Homo sapiens.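 Note: growth inhibition of SW1116 cells, read out with a cell viability assay.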
For another assay, the system named is NCI-H1048. The assay can be described thus: cells. As to conditions: Homo sapiens.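 Note: growth inhibition of human NCI-H1048 cells, read out with a cell viability assay.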
For a further assay, the system named is H-EMC-SS. The assay can be described thus: cells. The conditions noted are these: Homo sapiens.
The subject of the next assay is BALL-1. The assay can be described thus: cells. As to conditions: Homo sapiens.
In another assay the test system is EPLC-272H. Nature of the assay: cells. As to conditions: Homo sapiens.

Description for A549: SANGER: Inhibition of human A549 cell growth in a cell viability assay.
Description for BALL-1: SANGER: Inhibition of human BALL-1 cell growth in a cell viability assay.
Description for CCF-STTG1: SANGER: Inhibition of human CCF-STTG1 cell growth in a cell viability assay.
Description for CFPAC-1: SANGER: Inhibition of human CFPAC-1 cell growth in a cell viability assay.
Description for COLO 205: SANGER: Inhibition of human COLO-205 cell growth in a cell viability assay.
Description for Caov-3 cell line: SANGER: Inhibition of human Caov-3 cell growth in a cell viability assay.
Description for D-423MG: SANGER: Inhibition of human D-423MG cell growth in a cell viability assay.
Description for DMS-53: SANGER: Inhibition of human DMS-53 cell growth in a cell viability assay.
Description for DV-90: SANGER: Inhibition of human DV-90 cell growth in a cell viability assay.
Description for ECC10: SANGER: Inhibition of human ECC10 cell growth in a cell viability assay.
Description for EFE-184: SANGER: Inhibition of human EFE-184 cell growth in a cell viability assay.
Description for EPLC-272H: SANGER: Inhibition of human EPLC-272H cell growth in a cell viability assay.
Description for H-EMC-SS: SANGER: Inhibition of human H-EMC-SS cell growth in a cell viability assay.
Description for H9: SANGER: Inhibition of human H9 cell growth in a cell viability assay.
Description for HCC1143: SANGER: Inhibition of human HCC1143 cell growth in a cell viability assay.
Description for KNS-62: SANGER: Inhibition of human KNS-62 cell growth in a cell viability assay.
Description for MES-SA: SANGER: Inhibition of human MES-SA cell growth in a cell viability assay.
Description for NBsusSR: SANGER: Inhibition of human NBsusSR cell growth in a cell viability assay.
Description for NCI-H1048: SANGER: Inhibition of human NCI-H1048 cell growth in a cell viability assay.
Description for NCI-H1666: SANGER: Inhibition of human NCI-H1666 cell growth in a cell viability assay.
Description for NCI-H2029: SANGER: Inhibition of human NCI-H2029 cell growth in a cell viability assay.
Description for NCI-H2227: SANGER: Inhibition of human NCI-H2227 cell growth in a cell viability assay.
Description for NCI-H838: SANGER: Inhibition of human NCI-H838 cell growth in a cell viability assay.
Description for OC-314: SANGER: Inhibition of human OC-314 cell growth in a cell viability assay.
Description for PLC-PRF-5: SANGER: Inhibition of human PLC-PRF-5 cell growth in a cell viability assay.
Description for RH-18: SANGER: Inhibition of human RH-18 cell growth in a cell viability assay.
Description for SK-CO-1: SANGER: Inhibition of human SK-CO-1 cell growth in a cell viability assay.
Description for SNG-M: SANGER: Inhibition of human SNG-M cell growth in a cell viability assay.
Description for SNU-475: SANGER: Inhibition of human SNU-475 cell growth in a cell viability assay.
Description for SW 1116: SANGER: Inhibition of human SW1116 cell growth in a cell viability assay.
Description for SW900: SANGER: Inhibition of human SW900 cell growth in a cell viability assay.
Description for TGBC11TKB: SANGER: Inhibition of human TGBC11TKB cell growth in a cell viability assay.
Description for TI-73: SANGER: Inhibition of human TI-73 cell growth in a cell viability assay.
Description for YH-13: SANGER: Inhibition of human YH-13 cell growth in a cell viability assay.
Description for ZR-75-30: SANGER: Inhibition of human ZR-75-30 cell growth in a cell viability assay.

`N#C/C(=C1/Nc2ccccc2S1)c1ccnc(NCCc2cccnc2)n1`: the pIC50 – broadly, the IC50 on a negative log10 scale, so that one unit is a factor of ten – in the assay on RT-4 is less than 5.10; with DMS-53, less than 5.10; with Caov-3 cell line, less than 5.10; with EW-7, less than 5.10; in the assay with TT, less than 5.10; with CCF-STTG1, 5.19. In addition, the negative-log IC50 (pIC50) in the assay with HCC1143 was 5.38; in the assay with MES-SA, 5.33; with SK-CO-1 it was less than 5.10; in the assay with DV-90 it was less than 5.10; with EFE-184, 5.33; with NCI-H2227, less than 5.10. The pIC50 was less than 5.10 in the assay on Calu-1; less than 5.10 in the assay with PLC-PRF-5; 6.01 in the assay with SNG-M; less than 5.10 in the assay with COLO 205; 5.81 in the assay on MFE-296; less than 5.10 in the assay on C-4-II. Besides, the negative-log IC50 (pIC50) with IPC-298 was 5.13; in the assay on SNU-475, less than 5.10; with NCI-H838, less than 5.10.

Regarding `C/C(O)=C(\C#N)C(=O)Nc1cc(Br)ccc1Br`, the negative-log IC50 (pIC50) with RT-4, with DMS-53, in the assay on Caov-3 cell line, in the assay with EW-7, in the assay on TT and in the assay with CCF-STTG1 was less than 4.80 throughout. Further, the negative logarithm of the IC50 (pIC50) in the assay on HCC1143, in the assay on MES-SA, in the assay with SK-CO-1, in the assay with DV-90, with EFE-184 and in the assay with NCI-H2227 was less than 4.80 throughout. For the same compound, the negative logarithm of the IC50 (pIC50) in the assay on Calu-1, with PLC-PRF-5, with SNG-M, with COLO 205, in the assay with MFE-296 and with C-4-II was less than 4.80 in each case. Moreover, the pIC50 with IPC-298, in the assay with SNU-475 and in the assay on NCI-H838 was less than 4.80 throughout.

Take `CC(O)(CS(=O)(=O)c1ccc(F)cc1)C(=O)Nc1ccc(C#N)c(C(F)(F)F)c1` (stereo not given) [BICALUTAMIDE]: the pIC50 in the assay with RT-4, with DMS-53, in the assay with Caov-3 cell line, in the assay with EW-7, with TT and with CCF-STTG1 was less than 5.99 in each case. Besides, the pIC50 with HCC1143, in the assay with MES-SA, in the assay on SK-CO-1, in the assay on DV-90, with EFE-184 and with NCI-H2227 was less than 5.99 throughout. Moreover, the pIC50 in the assay on Calu-1, in the assay with PLC-PRF-5, in the assay on SNG-M, with COLO 205, in the assay with MFE-296 and in the assay on C-4-II was less than 5.99 in each case. The negative-log IC50 (pIC50) with IPC-298, in the assay with SNU-475 and with NCI-H838 was less than 5.99 in each case.

As for `COc1cc(Nc2c(C#N)cnc3cc(OCCCN4CCN(C)CC4)c(OC)cc23)c(Cl)cc1Cl` [BOSUTINIB], the negative logarithm of the IC50 (pIC50) in the assay on NCI-H2029, in the assay on TGBC11TKB, in the assay on SW900, in the assay with YH-13, in the assay on KNS-62 and in the assay on NCI-H1666 was less than 5.70 in each case. Moreover, the negative-log IC50 (pIC50) in the assay on H9 was 6.36; with D-423MG, less than 5.70; with TI-73, 5.99; with ECC10, less than 5.70; in the assay on RH-18 it was less than 5.70; in the assay on D-566MG, 5.80. The pIC50 is less than 5.70 in the assay on ZR-75-30; less than 5.70 in the assay on CFPAC-1; 6.06 with OC-314; less than 5.70 in the assay with NBsusSR; less than 5.70 in the assay with A549; less than 5.70 in the assay with SW 1116. Also, the pIC50 with NCI-H1048, with H-EMC-SS, in the assay on BALL-1 and with EPLC-272H was less than 5.70 in each case.

Regarding `CC[C@@]1(O)C(=O)OCc2c1cc1n(c2=O)Cc2cc3ccccc3nc2-1` [CAMPTOTHECIN], the negative logarithm of the IC50 (pIC50) in the assay on TGBC11TKB is 7.91; with SW900, 7.50; in the assay on YH-13 it was 7.93; in the assay on KNS-62, 8.11; with NCI-H1666, 7.73; in the assay on H9, 9.45. Further, the pIC50 in the assay on D-423MG was 8.59; in the assay with TI-73, 7.84; with ECC10 it was 8.41; in the assay with D-566MG it was 9.88; with CFPAC-1, 7.83; in the assay on OC-314, 8.60. The negative logarithm of the IC50 (pIC50) in the assay on NBsusSR is 9.71; in the assay on A549, 7.85; with NCI-H1048, 9.28; in the assay with H-EMC-SS it was 7.02; in the assay with EPLC-272H it was 7.14.

On to `CCNC(=O)c1noc(-c2cc(C(C)C)c(O)cc2O)c1-c1ccc(CN2CCOCC2)cc1` [LUMINESPIB], for which the negative logarithm of the IC50 (pIC50) is less than 6.59 in the assay on RT-4; 6.91 in the assay with DMS-53; less than 6.59 with Caov-3 cell line; 8.12 in the assay with EW-7; less than 6.59 in the assay with TT; 8.53 with CCF-STTG1. The negative logarithm of the IC50 (pIC50) with HCC1143 was less than 6.59; with MES-SA, 8.34; in the assay with SK-CO-1 it was 7.10; in the assay on DV-90 it was less than 6.59; in the assay on EFE-184, 6.61; in the assay on NCI-H2227, less than 6.59. In addition, the pIC50 with Calu-1 is 7.13; in the assay with PLC-PRF-5, less than 6.59; in the assay with SNG-M, 8.07; with COLO 205, 7.31; with MFE-296, 7.63; in the assay with C-4-II it was 6.91. Also, the figures for the negative logarithm of the IC50 (pIC50) in the assay with IPC-298, in the assay with SNU-475 and with NCI-H838 were 7.02, less than 6.59 and 6.62, respectively.

Take `CO[C@@]12[C@H](COC(N)=O)C3=C(C(=O)C(C)=C(N)C3=O)N1C[C@@H]1N[C@@H]12` [MITOMYCIN]: the pIC50 in the assay on RT-4 is 5.77; in the assay on DMS-53 it was 6.09; with Caov-3 cell line, 6.79; in the assay with EW-7 it was more than 7.20; in the assay with TT, 5.43; with CCF-STTG1, 6.67. The pIC50 was 5.97 with HCC1143; 6.84 with MES-SA; 6.70 with SK-CO-1; 5.53 in the assay on DV-90; 5.86 in the assay on EFE-184; 5.20 in the assay with NCI-H2227. For the same compound, the pIC50 was 5.32 in the assay with Calu-1; 5.38 with PLC-PRF-5; 6.87 in the assay with SNG-M; more than 7.20 with COLO 205; 6.54 in the assay with MFE-296; 6.99 with C-4-II. In addition, the pIC50 was 5.91 in the assay with IPC-298, 6.09 in the assay on SNU-475 and 5.91 in the assay on NCI-H838.

Turning to `C/C=C(/C)C(=O)O[C@H]1C(C)=C2[C@H]([C@@H]1OC(=O)CCCCCCC)[C@@](C)(OC(C)=O)C[C@H](OC(=O)CCC)[C@@]1(O)[C@H]2OC(=O)[C@@]1(C)O` [THAPSIGARGIN], the negative-log IC50 (pIC50) in the assay on RT-4 was 8.43; in the assay on DMS-53 it was 6.42; in the assay with Caov-3 cell line it was 7.43; in the assay on EW-7 it was 8.20; in the assay on TT, 6.66; in the assay on CCF-STTG1, 7.17. For the same compound, the negative-log IC50 (pIC50) in the assay with HCC1143 is 8.68; in the assay with MES-SA, more than 8.70; in the assay on SK-CO-1 it was 7.77; with DV-90, 7.54; in the assay with EFE-184, less than 6.29; with NCI-H2227, less than 6.29. The negative-log IC50 (pIC50) in the assay with Calu-1 was 8.68; in the assay on PLC-PRF-5 it was 7.04; in the assay on SNG-M it was more than 8.70; with COLO 205 it was 8.50; in the assay on MFE-296 it was 8.53; in the assay with C-4-II, 7.69. Further, the negative logarithm of the IC50 (pIC50) is 8.18 in the assay with IPC-298, less than 6.29 in the assay on SNU-475 and 7.45 with NCI-H838.
